From PMC9782245, “Synthesis and Structural Optimization of 2,7,9-Trisubstituted purin-8-ones as FLT3-ITD Inhibitors” (International Journal of Molecular Sciences, 2022) come the findings set out here.

“And” between values parts separate entries of the source, which are not always exact repeats. Identical values can stand only once. Like-named read-outs stand apart in the source and are kept apart here.

In test [1] the target is T1, FLT3 (Homo sapiens, UniProt P36888).
T1 construct: purchased Eurofins Discovery (France)
T1 sequence (P36888 27-993): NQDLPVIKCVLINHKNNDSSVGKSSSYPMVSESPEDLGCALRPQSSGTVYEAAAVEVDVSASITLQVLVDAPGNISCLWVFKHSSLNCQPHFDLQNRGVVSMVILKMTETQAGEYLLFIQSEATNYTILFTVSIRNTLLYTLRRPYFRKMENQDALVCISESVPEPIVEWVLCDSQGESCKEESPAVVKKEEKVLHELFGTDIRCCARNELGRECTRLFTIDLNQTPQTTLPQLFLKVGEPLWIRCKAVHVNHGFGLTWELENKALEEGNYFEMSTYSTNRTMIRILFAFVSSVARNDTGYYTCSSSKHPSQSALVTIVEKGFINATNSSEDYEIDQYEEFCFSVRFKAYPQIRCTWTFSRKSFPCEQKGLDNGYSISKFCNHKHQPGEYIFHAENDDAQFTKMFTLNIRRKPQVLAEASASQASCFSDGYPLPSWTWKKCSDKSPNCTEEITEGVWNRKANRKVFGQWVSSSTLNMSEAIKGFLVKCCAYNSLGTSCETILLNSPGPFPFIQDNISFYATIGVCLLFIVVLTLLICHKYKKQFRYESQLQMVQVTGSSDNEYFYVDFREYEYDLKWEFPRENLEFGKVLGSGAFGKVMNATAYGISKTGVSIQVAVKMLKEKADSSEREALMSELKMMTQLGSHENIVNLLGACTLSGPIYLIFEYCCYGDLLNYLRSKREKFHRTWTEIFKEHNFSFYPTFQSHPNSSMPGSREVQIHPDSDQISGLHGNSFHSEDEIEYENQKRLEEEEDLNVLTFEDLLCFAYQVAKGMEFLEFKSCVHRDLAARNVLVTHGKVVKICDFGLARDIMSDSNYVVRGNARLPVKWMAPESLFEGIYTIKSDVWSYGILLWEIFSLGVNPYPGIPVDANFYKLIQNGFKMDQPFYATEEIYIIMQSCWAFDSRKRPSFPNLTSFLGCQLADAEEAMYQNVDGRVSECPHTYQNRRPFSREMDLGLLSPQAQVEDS
In words: Kinase selectivity panel at 1 µM (Eurofins), FLT3. It counts as biochemical. The settings on record: 30 kinases. As to the method: (§1) Three representative compounds (14d, 14e, and 15a) were profiled in a 1 µM concentration against 30 kinases that were selected as known off-targets of approved CDK4/6 inhibitors. […] Additional sensitive kinases include STK16, EphA1, MEKK2, SRC, and MER (≤10% of residual enzyme activities), which are not targets of the structurally similar CDK4/6 inhibitor, trilaciclib. We also screened compound 15a, an analogue of 14d, bearing isopropyl at position 7 of the purine instead of the methyl group. This change rapidly diminished the potency against CDK4 (dropped to 90% of residual enzyme activity), but the preference for FLT3 remained (1st rank) (Figure 2).
(§2) CDK/cyclin complexes and FLT3 kinases were assayed as previously described. Protein kinase selectivity was evaluated at a single concentration (1 µM) by screening against 30 enzymes at Eurofins Discovery (France).

Test [2] deals with T2, Src (Homo sapiens, UniProt P12931).
T2 construct: purchased Eurofins Discovery (France)
In words: Kinase selectivity panel at 1 µM (Eurofins), Src. It is filed as biochemical. The note with it: read-out: residual enzyme activity Src. As to the method: as §1, §2

For test [3], the target named is T3, CDK4 (Homo sapiens, UniProt P11802).
T3 construct: purchased Eurofins Discovery (France)
In words: Kinase selectivity panel at 1 µM (Eurofins), CDK4. It is filed as biochemical. As to the method: as §1, §2

Test [4] deals with CDK4/D1 (Homo sapiens, UniProt P11802). Kind of test: Kinase inhibition assay CDK4/D1. It counts as biochemical. As to the method:
(§3) Newly prepared compounds 12–15 were assayed for inhibition of FLT3-ITD kinase as well as CDK4 and CDK2, known off-targets of structurally related compounds. We observed that CDK4 was sensitive to nearly all compounds with IC50 values in mid-nanomolar values.
as §2

Test [5] deals with CDK2/E (Homo sapiens, UniProt P24941). Kind of test: Kinase inhibition assay CDK2/E. It is filed as biochemical. As to the method: as §3, §2
Test [6] deals with K562 cells. In words: Resazurin-based viability assay, K562. It is filed as cell-based. The settings on record: Homo sapiens, 72 h, at least duplicate experiments. The text has this: (§4) In parallel to kinase assays, we measured the effect of compounds on the viability of cancer cell lines MV4-11 and K562 using a resazurin-based assay. MV4-11 is an AML cell line dependent on a constitutively activated FLT3-ITD kinase with high sensitivity to FLT3 inhibition, K562 cells (chronic myelogenous leukemia) are independent on FLT3.
(§5) Human cell lines were obtained from the European Collection of Authenticated Cell Cultures (K562) and Cell lines service (MV4-11) and were cultivated according to the provider’s instructions. Briefly, cells were maintained in RPMI-1640 (MV4-11) or DMEM (K562) supplemented with 10% fetal bovine serum, penicillin (100 U/mL), and streptomycin (0.1 mg/mL) at 37 °C in 5% CO2. For the viability assays, cells were treated in triplicate with six different doses of each compound for 72 h. After treatments, the resazurin (Sigma Aldrich, St. Louis, MO, USA) solution was added for 4 h, and the fluorescence of resorufin corresponding to live cells was measured at 544/590 nm (excitation/emission) using a Fluoroskan Ascent microplate reader (Labsystems). The GI50 value, the drug concentration lethal to 50% of the cells, was calculated from the dose-response curves that resulted from the assays.

The target of test [7] is T4, FLT3-ITD (Homo sapiens, UniProt P36888, ITD).
T4 sequence (P36888 27-993): T1 sequence (P36888 27-993)
Kind of test: Kinase inhibition assay FLT3-ITD. It counts as biochemical. The protocol:
as §3, §2

Test [8] relates to MV4-11 cells. In words: Resazurin-based viability assay, MV4-11. It is filed as cell-based, Human. The settings on record: for GI50: Homo sapiens, MV4-11, 72 h, resazurin, at least duplicate experiments.
Description: as §4, §5

Test [9] addresses T5, STK16 (Homo sapiens, UniProt O75716).
T5 construct: purchased Eurofins Discovery (France)
In words: Kinase selectivity panel at 1 µM (Eurofins), STK16. It is filed as biochemical. The settings on record: read-out: residual enzyme activity STK16. As to the method: as §1, §2

Setting [10] is: at least duplicate experiments, read-out: IC50 CDK4/D1.
Where [11] appears, read: at least duplicate experiments, read-out: IC50 CDK2/E.
Setting [12] is: at least duplicate experiments, read-out: IC50 FLT3-ITD.

T2 sequence (P12931 whole entry): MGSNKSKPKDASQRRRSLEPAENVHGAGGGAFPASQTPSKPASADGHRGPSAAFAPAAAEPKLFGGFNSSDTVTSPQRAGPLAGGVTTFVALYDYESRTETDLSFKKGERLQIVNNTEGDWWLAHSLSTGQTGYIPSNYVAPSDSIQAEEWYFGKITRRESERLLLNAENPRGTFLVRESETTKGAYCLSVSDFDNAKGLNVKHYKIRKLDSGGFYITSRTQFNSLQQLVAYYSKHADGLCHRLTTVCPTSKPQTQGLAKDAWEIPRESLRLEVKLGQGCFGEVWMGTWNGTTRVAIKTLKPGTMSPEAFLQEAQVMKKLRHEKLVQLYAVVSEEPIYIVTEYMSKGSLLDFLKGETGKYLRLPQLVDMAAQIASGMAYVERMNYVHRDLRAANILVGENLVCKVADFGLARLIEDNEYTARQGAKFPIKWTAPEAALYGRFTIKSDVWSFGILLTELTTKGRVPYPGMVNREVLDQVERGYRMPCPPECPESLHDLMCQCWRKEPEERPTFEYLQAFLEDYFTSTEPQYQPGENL
T3 sequence (P11802 whole entry): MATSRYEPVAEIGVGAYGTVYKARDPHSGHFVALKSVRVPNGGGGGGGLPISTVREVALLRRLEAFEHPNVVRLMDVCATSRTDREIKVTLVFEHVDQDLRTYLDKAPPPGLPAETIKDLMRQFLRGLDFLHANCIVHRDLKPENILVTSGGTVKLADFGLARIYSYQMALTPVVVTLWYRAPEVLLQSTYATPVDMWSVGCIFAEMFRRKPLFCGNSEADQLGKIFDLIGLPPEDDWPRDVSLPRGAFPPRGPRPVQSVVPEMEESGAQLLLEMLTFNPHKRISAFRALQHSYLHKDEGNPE
T3 sequence (P30281 whole entry partner): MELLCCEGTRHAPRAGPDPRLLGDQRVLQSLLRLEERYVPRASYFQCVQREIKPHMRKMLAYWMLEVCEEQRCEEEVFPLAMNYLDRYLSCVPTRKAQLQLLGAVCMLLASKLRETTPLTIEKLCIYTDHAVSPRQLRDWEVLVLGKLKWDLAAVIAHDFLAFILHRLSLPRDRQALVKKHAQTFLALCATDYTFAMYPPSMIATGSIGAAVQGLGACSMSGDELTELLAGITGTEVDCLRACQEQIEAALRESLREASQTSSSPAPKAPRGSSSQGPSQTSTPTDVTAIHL
CDK4/D1, sequence (P11802 whole entry): as the sequence (P11802 whole entry) above
CDK4/D1, sequence (P24385 whole entry partner): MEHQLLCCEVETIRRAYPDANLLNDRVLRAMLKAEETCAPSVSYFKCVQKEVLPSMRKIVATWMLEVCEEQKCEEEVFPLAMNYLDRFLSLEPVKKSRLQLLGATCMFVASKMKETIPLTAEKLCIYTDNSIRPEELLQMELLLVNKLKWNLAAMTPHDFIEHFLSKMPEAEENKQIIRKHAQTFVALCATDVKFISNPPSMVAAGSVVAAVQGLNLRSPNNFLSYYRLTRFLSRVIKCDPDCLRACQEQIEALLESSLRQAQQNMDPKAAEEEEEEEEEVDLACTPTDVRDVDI
T5 sequence (O75716 whole entry): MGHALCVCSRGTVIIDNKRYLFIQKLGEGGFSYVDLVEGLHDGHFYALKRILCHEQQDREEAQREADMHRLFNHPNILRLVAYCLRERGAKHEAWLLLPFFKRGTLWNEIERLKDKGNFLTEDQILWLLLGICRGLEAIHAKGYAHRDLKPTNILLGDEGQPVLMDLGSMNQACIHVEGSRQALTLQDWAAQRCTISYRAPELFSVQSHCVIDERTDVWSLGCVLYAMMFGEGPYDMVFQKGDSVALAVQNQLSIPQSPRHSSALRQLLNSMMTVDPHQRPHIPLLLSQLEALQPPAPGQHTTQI

In the case of `CC(C)n1c(=O)n(C2CCCC2)c2nc(Nc3ccc(N4CCNCC4)cc3)ncc21` [15a, 9-cyclopentyl-7-isopropyl-2-((4-(piperazin-1-yl)phenyl)amino)-7,9-dihydro-8H-purin-8-one], the “FLT3 inhibition in selectivity panel” value in [1] was found to be 1st rank. For the same molecule, the remaining activity at 1 µM in test [2] was ≤ 10%; in [3] (read-out: residual enzyme activity CDK4), 90%. Further, the IC50 in test [4] (setting [10]) turned out to be 1900 nM; in [5] (setting [11]), 5060 nM; in test [7] (setting [12]), 37 nM. In addition, the concentration for 50% growth inhibition (GI50) was found to be 580 nM in test [6] and 50 nM in test [8].
Take `Cn1c(=O)n(C2CCCC2)c2nc(Nc3ccc(N4CCNCC4)cc3)ncc21` [14d]: the “FLT3 inhibition in selectivity panel” value in [1] is “potent CDK4 and FLT3 inhibitors”. Further, the remaining activity at 1 µM in test [2] and in [9] was ≤ 10% throughout. The “CDK4 inhibition in selectivity panel” value in test [3] was “potent CDK4 and FLT3 inhibitors”. Besides, the IC50 in test [4] (setting [10]) is 157 nM; in test [5] (setting [11]), > 1000 nM and 1820 nM; in test [7] (setting [12]), 83 nM. Also, the GI50 was 960 nM in test [6] and 120 nM in [8].
In the case of `Cn1c(=O)n(C2CCCCC2)c2nc(Nc3ccc(N4CCNCC4)cc3)ncc21` [14e], the “FLT3 inhibition in selectivity panel” value in test [1] was “potent CDK4 and FLT3 inhibitors”. The remaining activity at 1 µM in test [2] and in [9] was ≤ 10% in each case. In test [3], the “CDK4 inhibition in selectivity panel” value is “potent CDK4 and FLT3 inhibitors”. Also, the IC50 is 20 nM in test [4] (setting [10]); ≤ 300 nM in test [4] (read-out: IC50 CDK4); 300 nM in [5] (setting [11]); ≤ 300 nM in test [5] (read-out: IC50 CDK2); 68 nM in test [7] (setting [12]); ≤ 300 nM in test [7] (read-out: IC50 FLT3). Moreover, the figures for the GI50 in test [6] and in test [8] were 4530 nM and 200 nM, respectively. Also, the “selectivity index (ratio for GI50's of K562 and MV4-11 cells)” value in test [8] (K562 / MV4-11) is reported as > 20.
